# Tested on: 328373-195-R-J1-PDC complex spheroids, viability % test/control
# Experiment: Anticancer human tumor 328373-195-R-J1-PDC patient-derived head and neck squamous carcinoma cell line growth inhibition [CLK]
# Conditions: for IC50: curve of first compound; for viability, T/C: stronger effect = lower value
# Procedure, shortened: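 Multi-cell-type spheroids combined patient-derived tumor cells with HUVEC endothelial cells and human mesenchymal stem cells. Paired agents were dosed in half-log steps down from about clinical Cmax, or from 10 microM where Cmax was unknown.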
# 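Also: spheroids exposed to the agents for 7 days.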
structure (smiles),measurement,setting,value
CC(C)CC(NC(=O)C(Cc1ccccc1)NC(=O)c1cnccn1)B(O)O (configuration not stated) + CNC(=O)c1ccc(Nc2nc(OC3CCCC3)c3c(-c4ccc5nc(C)oc5c4)c[nH]c3n2)c(OC)c1,IC50,second compound 0.0316 µM,1.43 nM
same,IC50,second compound 0.1 µM,< 0.949 nM
same,IC50,second compound 0.316 µM,< 0.949 nM
same,IC50,second compound 1 µM,< 0.949 nM
same,IC50,second compound 3.16 µM,< 0.949 nM
same,IC50,second compound 10 µM,< 0.949 nM
same,"viability, T/C","second compound 0.0316 µM, first compound 0.000949 µM",75.7%
same,"viability, T/C","second compound 0.0316 µM, first compound 0.003 µM",3.15%
same,"viability, T/C","second compound 0.0316 µM, first compound 0.00949 µM",0.27%
same,"viability, T/C","second compound 0.0316 µM, first compound 0.03 µM",0.18%
same,"viability, T/C","second compound 0.0316 µM, first compound 0.0949 µM",0.2%
same,"viability, T/C","second compound 0.0316 µM, first compound 0.3 µM",0.32%
same,"viability, T/C","second compound 0.1 µM, first compound 0.000949 µM",12.8%
same,"viability, T/C","second compound 0.1 µM, first compound 0.003 µM",4.91%
same,"viability, T/C","second compound 0.1 µM, first compound 0.00949 µM",0.98%
same,"viability, T/C","second compound 0.1 µM, first compound 0.03 µM",0.14%
same,"viability, T/C","second compound 0.1 µM, first compound 0.0949 µM",0.16%
same,"viability, T/C","second compound 0.1 µM, first compound 0.3 µM",1.45%
same,"viability, T/C","second compound 0.316 µM, first compound 0.000949 µM",10.9%
same,"viability, T/C","second compound 0.316 µM, first compound 0.003 µM",5.82%
same,"viability, T/C","second compound 0.316 µM, first compound 0.00949 µM",0.17%
same,"viability, T/C","second compound 0.316 µM, first compound 0.03 µM",0.11%
same,"viability, T/C","second compound 0.316 µM, first compound 0.0949 µM",0.14%
same,"viability, T/C","second compound 0.316 µM, first compound 0.3 µM",0.13%
same,"viability, T/C","second compound 1 µM, first compound 0.000949 µM",9.47%
same,"viability, T/C","second compound 1 µM, first compound 0.003 µM",4.37%
same,"viability, T/C","second compound 1 µM, first compound 0.00949 µM",0.14%
same,"viability, T/C","second compound 1 µM, first compound 0.03 µM",0.08%
same,"viability, T/C","second compound 1 µM, first compound 0.0949 µM",0.12%
same,"viability, T/C","second compound 1 µM, first compound 0.3 µM",1.52%
same,"viability, T/C","second compound 3.16 µM, first compound 0.000949 µM",12.4%
same,"viability, T/C","second compound 3.16 µM, first compound 0.003 µM",3.42%
same,"viability, T/C","second compound 3.16 µM, first compound 0.00949 µM",0.15%
same,"viability, T/C","second compound 3.16 µM, first compound 0.03 µM",0.09%
same,"viability, T/C","second compound 3.16 µM, first compound 0.0949 µM",0.24%
same,"viability, T/C","second compound 3.16 µM, first compound 0.3 µM",0.19%
same,"viability, T/C","second compound 10 µM, first compound 0.000949 µM",14.2%
same,"viability, T/C","second compound 10 µM, first compound 0.003 µM",2.54%
same,"viability, T/C","second compound 10 µM, first compound 0.00949 µM",0.2%
same,"viability, T/C","second compound 10 µM, first compound 0.03 µM",0.64%
same,"viability, T/C","second compound 10 µM, first compound 0.0949 µM",0.3%
same,"viability, T/C","second compound 10 µM, first compound 0.3 µM",0.6%
